Square brackets hold non-standard residues; d marks the D form. Peptide text beside a SMILES is read from it. Cit = NC(=O)NCCC[C@H](N)C(=O)O
Columns and labels:
MMP9 = MMP9 (Homo sapiens, UniProt P14780); assay: Enzymolysis assay of polypeptides by MMP9 (RP-HPLC); type: biochemical; settings: polypeptide 100 µmol with activated MMP9, 37°C, 4 h, RP-HPLC peak areas
Description: (§1) First, MMP2 or MMP9 enzyme solution having a final concentration of 200 µg/mL was mixed with 4 mM APMA at a ratio of 1:1, placed in a 37°C water bath and incubated for 24 h to activate the MMP2 or MMP9 enzyme solution. Subsequently, the test polypeptide having a final concentration of 100 µmol was incubated with the activated MMP2 or MMP9 enzyme solution in a 37°C water bath for 4 h. After the reaction was complete, an equal volume of acetonitrile solution was added thereto, followed by RP-HPLC analysis.
(§2) The enzymolysis efficiency of the polypeptide was calculated based on the peak areas of the target peak before and after enzymolysis. The formula is as follows: Enzymolysis efficiency = […] [formula]

MMP2 = target: T1, MMP2 (Homo sapiens, UniProt P08253); assay: Enzymolysis assay of polypeptides by MMP2 (RP-HPLC); type: biochemical; settings: test polypeptide 100 µmol, activated MMP2, 37°C, 4 h
T1 sequence (P08253 110-660): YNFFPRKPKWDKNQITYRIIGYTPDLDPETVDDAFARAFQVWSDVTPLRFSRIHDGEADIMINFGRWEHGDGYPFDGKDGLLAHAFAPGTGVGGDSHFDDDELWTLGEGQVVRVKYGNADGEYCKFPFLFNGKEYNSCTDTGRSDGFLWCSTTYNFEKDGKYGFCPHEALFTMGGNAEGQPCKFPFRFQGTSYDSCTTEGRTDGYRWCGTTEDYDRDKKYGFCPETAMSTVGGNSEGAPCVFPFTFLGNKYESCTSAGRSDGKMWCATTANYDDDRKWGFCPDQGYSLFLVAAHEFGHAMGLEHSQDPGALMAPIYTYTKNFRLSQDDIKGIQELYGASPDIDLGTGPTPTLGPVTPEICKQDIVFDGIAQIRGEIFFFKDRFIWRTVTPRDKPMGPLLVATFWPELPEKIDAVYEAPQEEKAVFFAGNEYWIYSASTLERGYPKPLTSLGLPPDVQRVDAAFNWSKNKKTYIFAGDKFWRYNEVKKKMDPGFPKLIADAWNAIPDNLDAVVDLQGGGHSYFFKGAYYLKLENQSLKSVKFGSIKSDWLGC
Description: as §1, §2

Chain of MMP9 (P14780 107-707 limits assumed, species assumed): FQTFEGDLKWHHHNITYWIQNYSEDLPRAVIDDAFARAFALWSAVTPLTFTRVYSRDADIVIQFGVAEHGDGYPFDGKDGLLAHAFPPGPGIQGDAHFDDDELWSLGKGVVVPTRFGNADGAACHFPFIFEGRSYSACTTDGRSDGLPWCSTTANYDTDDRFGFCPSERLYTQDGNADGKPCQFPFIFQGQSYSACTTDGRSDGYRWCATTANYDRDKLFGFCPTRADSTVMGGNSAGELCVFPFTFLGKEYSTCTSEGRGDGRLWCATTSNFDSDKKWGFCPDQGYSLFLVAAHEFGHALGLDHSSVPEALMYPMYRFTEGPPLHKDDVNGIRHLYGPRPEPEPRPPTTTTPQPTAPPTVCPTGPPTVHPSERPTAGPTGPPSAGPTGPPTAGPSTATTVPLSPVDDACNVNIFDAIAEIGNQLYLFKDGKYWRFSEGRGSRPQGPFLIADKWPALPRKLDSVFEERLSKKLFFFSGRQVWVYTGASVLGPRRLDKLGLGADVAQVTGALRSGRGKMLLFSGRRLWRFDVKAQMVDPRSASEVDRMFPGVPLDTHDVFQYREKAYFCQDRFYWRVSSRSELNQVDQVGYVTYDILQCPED

| Compound | Enzymolysis efficiency (%) (MMP9) | Enzymolysis efficiency (%) (MMP2) |
| --- | --- | --- |
| CC(=O)NCC(=O)N1CCC[C@H]1C(=O)N[C@@H](CCCNC(=N)N)C(=O)N1CCC[C@H]1C(=O)N[C@@H](CC(C)C)C(=O)N[C@H](C(=O)N[C@@H](CCCNC(N)=O)C(N)=O)C(C)C [Compound 2-P8] (Ac-GPRPLV[Cit]-NH2) | 62.58 | 55.07 |
| CC(=O)N[C@@H](CO)C(=O)N1CCC[C@H]1C(=O)N[C@@H](CCCNC(=N)N)C(=O)N1CCC[C@H]1C(=O)N[C@@H](CC(C)C)C(=O)N[C@H](C(=O)N[C@@H](CCCNC(N)=O)C(N)=O)C(C)C [Compound 2-P20] (Ac-SPRPLV[Cit]-NH2) | 57.87 | 52.52 |
| CC(=O)NCC(=O)N1CCC[C@H]1C(=O)N[C@@H](CCCNC(=N)N)C(=O)N[C@@H](CO)C(=O)N[C@@H](CC(C)C)C(=O)N[C@H](C(=O)N[C@@H](CCCNC(N)=O)C(N)=O)C(C)C [Compound 2-P7] (Ac-GPRSLV[Cit]-NH2) | 77.95 | 62.64 |
| CC(=O)NCC(=O)N1CCC[C@H]1C(=O)N[C@@H](CCCNC(=N)N)C(=O)NCC(=O)N[C@@H](CC(C)C)C(=O)N[C@H](C(=O)N[C@@H](CCCNC(N)=O)C(N)=O)C(C)C [Compound 1-P11] (Ac-GPRGLV[Cit]-NH2) | 81.51 | 86.82 |
| CC(=O)N[C@@H](CO)C(=O)N1CCC[C@H]1C(=O)N[C@@H](CCCNC(=N)N)C(=O)N[C@@H](CO)C(=O)N[C@@H](CC(C)C)C(=O)N[C@H](C(=O)N[C@@H](CCCNC(N)=O)C(N)=O)C(C)C [Compound 2-P19] (Ac-SPRSLV[Cit]-NH2) | 79.26 | 55.76 |
| CC(=O)NCC(=O)N1CCC[C@H]1C(=O)N[C@@H](CO)C(=O)NCC(=O)N[C@@H](CC(C)C)C(=O)N[C@H](C(=O)N[C@@H](CCCNC(N)=O)C(N)=O)C(C)C [Compound 1-P10] (Ac-GPSGLV[Cit]-NH2) | 27.93 | 75.95 |
| Ac-GPLSLGGFG-NH2 [Compound 1-P17] | 27.26 | 37.27 |
| Ac-GPSGLGGFG-NH2 [Compound 1-P22] | 37.81 | 82.72 |
| CC(=O)N[C@@H](Cc1c[nH]cn1)C(=O)N1CCC[C@H]1C(=O)N[C@@H](CCCNC(N)=O)C(=O)N1CCC[C@H]1C(=O)N[C@@H](CC(C)C)C(=O)N[C@H](C(=O)N[C@@H](CCCNC(N)=O)C(N)=O)C(C)C [Compound 2-P17] (Ac-HP[Cit]PLV[Cit]-NH2) | 48.98 | 42.87 |
| CC(=O)N[C@@H](Cc1c[nH]cn1)C(=O)N1CCC[C@H]1C(=O)N[C@@H](CCCNC(N)=O)C(=O)NCC(=O)N[C@@H](CC(C)C)C(=O)N[C@H](C(=O)N[C@@H](CCCNC(N)=O)C(N)=O)C(C)C [Compound 2-P16] (Ac-HP[Cit]GLV[Cit]-NH2) | 64.81 | 53.54 |
| CC(=O)NCC(=O)N1CCC[C@H]1C(=O)N[C@@H](C)C(=O)N[C@@H](C)C(=O)N[C@@H](CC(C)C)C(=O)N[C@H](C(=O)N[C@@H](CCCNC(N)=O)C(N)=O)C(C)C [Compound 1-P12] (Ac-GPAALV[Cit]-NH2) | 20.93 | 38.94 |
| CC(=O)N[C@@H](CO)C(=O)N1CCC[C@H]1C(=O)N[C@@H](CCCNC(N)=O)C(=O)N[C@@H](CO)C(=O)N[C@@H](CC(C)C)C(=O)N[C@H](C(=O)N[C@@H](CCCNC(N)=O)C(N)=O)C(C)C [Compound 2-P23] (Ac-SP[Cit]SLV[Cit]-NH2) | 59.39 | 33.63 |
| CC(=O)N1CCC[C@H]1C(=O)N[C@@H](CCCNC(N)=O)C(=O)N1CCC[C@H]1C(=O)N[C@@H](CC(C)C)C(=O)N[C@H](C(=O)N[C@@H](CCCNC(N)=O)C(N)=O)C(C)C [Compound 2-P6] (Ac-P[Cit]PLV[Cit]-NH2) | 36.08 | 36.21 |
| CC(=O)N1CCC[C@H]1C(=O)N[C@@H](CCCNC(N)=O)C(=O)NCC(=O)N[C@@H](CC(C)C)C(=O)N[C@H](C(=O)N[C@@H](CCCNC(N)=O)C(N)=O)C(C)C [Compound 2-P5] (Ac-P[Cit]GLV[Cit]-NH2) | 68.91 | 61.03 |
| CC(=O)NCC(=O)N1CCC[C@H]1C(=O)N[C@@H](C)C(=O)N[C@@H](CO)C(=O)N[C@@H](CC(C)C)C(=O)N[C@H](C(=O)N[C@@H](CCCNC(N)=O)C(N)=O)C(C)C [Compound 1-P6] (Ac-GPASLV[Cit]-NH2) | 28.79 | 86.72 |
| CC(=O)N[C@@H](CO)C(=O)N1CCC[C@H]1C(=O)N[C@@H](CCCNC(N)=O)C(=O)N1CCC[C@H]1C(=O)N[C@@H](CC(C)C)C(=O)N[C@H](C(=O)N[C@@H](CCCNC(N)=O)C(N)=O)C(C)C [Compound 2-P24] (Ac-SP[Cit]PLV[Cit]-NH2) | 38.72 | 45.97 |
| Ac-GPASLGGFG-NH2 [Compound 1-P18] | 9.10 | 68.38 |
| CC(=O)N[C@H](C(=O)N1CCC[C@H]1C(=O)N[C@@H](CC(C)C)C(=O)N[C@@H](CO)C(=O)N[C@@H](CC(C)C)C(=O)N[C@H](C(=O)N[C@@H](CCCNC(N)=O)C(N)=O)C(C)C)C(C)C [Compound 1-P3] (Ac-VPLSLV[Cit]-NH2) | 51.44 | 49.85 |
| Ac-GPRGLGGFG-NH2 [Compound 1-P23] | 84.66 | 89.54 |
| CC(=O)NCC(=O)N1CCC[C@H]1C(=O)N[C@@H](CC(C)C)C(=O)NCC(=O)N[C@@H](CC(C)C)C(=O)N[C@H](C(=O)N[C@@H](CCCNC(N)=O)C(N)=O)C(C)C [Compound 1-P9] (Ac-GPLGLV[Cit]-NH2) | 68.34 | 81.75 |
| Ac-HVLNLGGFG-NH2 [Compound 1-P14] | 4.86 | 11.78 |
| CC(=O)N1CCC[C@H]1C(=O)N[C@@H](CCCNC(=N)N)C(=O)N1CCC[C@H]1C(=O)N[C@@H](CC(C)C)C(=O)N[C@H](C(=O)N[C@@H](CCCNC(N)=O)C(N)=O)C(C)C [Compound 2-P4] (Ac-PRPLV[Cit]-NH2) | 61.01 | 46.14 |
| CC(=O)N[C@@H](CO)C(=O)N1CCC[C@H]1C(=O)N[C@@H](CCCNC(N)=O)C(=O)NCC(=O)N[C@@H](CC(C)C)C(=O)N[C@H](C(=O)N[C@@H](CCCNC(N)=O)C(N)=O)C(C)C [Compound 2-P22] (Ac-SP[Cit]GLV[Cit]-NH2) | 73.74 | 55.25 |
| CC(=O)N1CCC[C@H]1C(=O)N[C@@H](CCCNC(=N)N)C(=O)N[C@@H](CO)C(=O)N[C@@H](CC(C)C)C(=O)N[C@H](C(=O)N[C@@H](CCCNC(N)=O)C(N)=O)C(C)C [Compound 2-P2] (Ac-PRSLV[Cit]-NH2) | 79.34 | 53.20 |
| CC(=O)N[C@@H](Cc1c[nH]cn1)C(=O)N1CCC[C@H]1C(=O)N[C@@H](CCCNC(=N)N)C(=O)NCC(=O)N[C@@H](CC(C)C)C(=O)N[C@H](C(=O)N[C@@H](CCCNC(N)=O)C(N)=O)C(C)C [Compound 2-P12] (Ac-HPRGLV[Cit]-NH2) | 95.73 | 77.58 |
| CC(=O)NCC(=O)N1CCC[C@H]1C(=O)N[C@@H](CCCNC(=N)N)C(=O)N[C@@H](CC(N)=O)C(=O)N[C@@H](CC(C)C)C(=O)N[C@H](C(=O)N[C@@H](CCCNC(N)=O)C(N)=O)C(C)C [Compound 2-P9] (Ac-GPRNLV[Cit]-NH2) | 100.00 | 77.00 |
| CC(=O)N[C@@H](Cc1c[nH]cn1)C(=O)N[C@H](C(=O)N[C@@H](CC(C)C)C(=O)N[C@@H](CC(N)=O)C(=O)N[C@@H](CC(C)C)C(=O)N[C@H](C(=O)N[C@@H](CCCNC(N)=O)C(N)=O)C(C)C)C(C)C [Compound 1-P2] (Ac-HVLNLV[Cit]-NH2) | – | 14.28 |

— EP4796557A1, “POLYPEPTIDE, BIOACTIVE CONJUGATE, AND PREPARATION METHOD THEREFOR AND USE THEREOF” (priority 2023, dated 2025)
